Laboratory results as given in patent US20210323981A1, “FREE AMINO COMPOUNDS FOR THE TREATMENT AND PROPHYLAXIS OF BACTERIAL INFECTION” (Hoffmann-La Roche Inc., priority 2018, published 2021).

Columns and labels:
Type in all cases: cell-based
[1] = test system: A. baumannii (ATCC17978); assay: 50% growth inhibitory concentration (IC50) determination assay, A. baumannii; conditions: Acinetobacter baumannii, growth inhibition, Iso-Sensitest broth, OD 600 nm over 16 h, <0.098 = detection limit
Protocol: (§1) The in vitro antimicrobial activity of the compounds against S. aureus (ATCC29213), K. pneumoniae (ATCC10031), and A. baumannii (ATCC17978), was determined according to the following procedure: The assay used a 10-points Iso-Sensitest broth medium to measure quantitatively the in vitro activity of the compounds against S. aureus ATCC29213, K. pneumoniae ATCC 10031, and A. baumannii ATCC17978. Stock compounds in DMSO were serially two-fold diluted (range from 50 to 0.097 μM final concentration) in 384 wells microtiter plates and inoculated with 49 μL the bacterial suspension in Iso-Sensitest broth medium to have a final cell concentration of ˜5×10^5 CFU/mL in a final volume/well of 50 μL/well. Microtiter plates were incubated at 35±2° C. Bacterial cell growth was determined with the measurement of optical density at k=600 nm each 20 minutes over a time course of 16 h. Growth inhibition was calculated during the logarithmic growth of the bacterial cells with determination of the concentration inhibiting 50% (IC50) of the growth.

[2] = test system: S. aureus (ATCC29213); assay: 50% growth inhibitory concentration (IC50) determination assay, S. aureus; conditions: Staphylococcus aureus, growth inhibition, Iso-Sensitest broth, OD 600 nm over 16 h, <0.098 μM = detection limit
Protocol: as §1

[3] = test system: K. pneumoniae (ATCC10031); assay: 50% growth inhibitory concentration (IC50) determination assay, K. pneumoniae; conditions: Klebsiella pneumoniae, growth inhibition, Iso-Sensitest broth, OD 600 nm over 16 h, <0.098 μM = detection limit
Protocol: as §1

Row | Structure (SMILES) | IC50 [1] | IC50 [2] | IC50 [3]
1 | CNc1cc(F)c(F)c2c1[nH]c1ncc(-c3cnc4c(c3)c(=O)c(C(=O)O)cn4C)c(N3CC[C@@H](N)C3)c12 [Example 1.17, 6-[4-[(3R)-3-Aminopyrrolidin-1-yl]-5,6-difluoro-8-(methylamino)-9H-pyrido[2,3-b]indol-3-yl]-1-methyl-4-oxo-1,8-naphthyridine-3-carboxylic acid] | 2.95 µM | 0.532 µM | < 0.098 µM
2 | CNc1cc(F)c(F)c2c1[nH]c1ncc(-c3cnc4c(c3)c(=O)c(C(=O)O)cn4C)c(N3CC[C@]4(C[C@@H]4N)C3)c12 [Example 3.04, 6-[4-[(2S,3S)-2-Amino-5-azaspiro[2.4]heptan-5-yl]-5,6-difluoro-8-(methylamino)-9H-pyrido[2,3-b]indol-3-yl]-1-methyl-4-oxo-1,8-naphthyridine-3-carboxylic acid] | 0.175 µM | < 0.098 µM | < 0.098 µM
3 | CNc1cc(F)c(Cl)c2c1[nH]c1ncc(-c3cnc4c(c3)c(=O)c(C(=O)O)cn4C)c(N3CC[C@@]4(C[C@H]4N)C3)c12 [Example 4.01, 6-[4-[(2R,3R)-2-Amino-5-azaspiro[2.4]heptan-5-yl]-5-chloro-6-fluoro-8-(methylamino)-9H-pyrido[2,3-b]indol-3-yl]-1-methyl-4-oxo-1,8-naphthyridine-3-carboxylic acid] | 0.0765 µM | < 0.098 µM | < 0.098 µM
4 | CNc1cc(F)c(Cl)c2c1[nH]c1ncc(-c3cnc4c(c3)c(=O)c(C(=O)O)cn4C)c(N3CC[C@]4(C[C@@H]4N)C3)c12 [Example 4.02, 6-[4-[(2S,3S)-2-amino-5-azaspiro[2.4]heptan-5-yl]-5-chloro-6-fluoro-8-(methylamino)-9H-pyrido[2,3-b]indol-3-yl]-1-methyl-4-oxo-1,8-naphthyridine-3-carboxylic acid] | 0.0973 µM | < 0.098 µM | < 0.098 µM
5 | CNc1cc(F)c(Cl)c2c1[nH]c1ncc(-c3cnc4c(c3)c(=O)c(C(=O)O)cn4C)c(N3CC[C@@]4(C[C@@H]4N)C3)c12 [Example 4.03, 6-[4-[(2S,3R)-2-amino-5-azaspiro[2.4]heptan-5-yl]-5-chloro-6-fluoro-8-(methylamino)-9H-pyrido[2,3-b]indol-3-yl]-1-methyl-4-oxo-1,8-naphthyridine-3-carboxylic acid] | 0.0553 µM | < 0.098 µM | < 0.098 µM
6 | CNc1cc(F)c(Cl)c2c1[nH]c1ncc(-c3cnc4c(c3)c(=O)c(C(=O)O)cn4C)c(N3CC[C@]4(C[C@H]4N)C3)c12 [Example 4.04, 6-[4-[(2R,3S)-2-amino-5-azaspiro[2.4]heptan-5-yl]-5-chloro-6-fluoro-8-(methylamino)-9H-pyrido[2,3-b]indol-3-yl]-1-methyl-4-oxo-1,8-naphthyridine-3-carboxylic acid] | 0.0793 µM | < 0.098 µM | < 0.098 µM
7 | CNc1cc(F)c(C#N)c2c1[nH]c1ncc(-c3cnc4c(c3)c(=O)c(C(=O)O)cn4C)c(N3CC[C@@]4(C[C@@H]4N)C3)c12 [Example 5.01, 6-[4-[(2S,3R)-2-Amino-5-azaspiro[2.4]heptan-5-yl]-5-cyano-6-fluoro-8-(methylamino)-9H-pyrido[2,3-b]indol-3-yl]-1-methyl-4-oxo-1,8-naphthyridine-3-carboxylic acid] | 0.477 µM | < 0.098 µM | < 0.098 µM
8 | CNc1cc(F)c(C#N)c2c1[nH]c1ncc(-c3cnc4c(c3)c(=O)c(C(=O)O)cn4C)c(N3CC[C@]4(C[C@H]4N)C3)c12 [Example 5.02, 6-[4-[(2R,3S)-2-amino-5-azaspiro[2.4]heptan-5-yl]-5-cyano-6-fluoro-8-(methylamino)-9H-pyrido[2,3-b]indol-3-yl]-1-methyl-4-oxo-1,8-naphthyridine-3-carboxylic acid] | 0.417 µM | < 0.098 µM | < 0.098 µM
9 | CNc1cc(F)c(C#N)c2c1[nH]c1ncc(-c3cnc4c(c3)c(=O)c(C(=O)O)cn4C)c(N3CC[C@]4(C[C@@H]4N)C3)c12 [Example 5.03, 6-[4-[(2S,3S)-2-amino-5-azaspiro[2.4]heptan-5-yl]-5-cyano-6-fluoro-8-(methylamino)-9H-pyrido[2,3-b]indol-3-yl]-1-methyl-4-oxo-1,8-naphthyridine-3-carboxylic acid] | 0.497 µM | < 0.098 µM | < 0.098 µM
